Data from US20200369618A1, “ASYMMETRIC DERIVATIVES OF P[…] THE DIN[…], PROCESS OF PREPARING AND USE THEREOF” (NEARMEDIC INTERNATIONAL LIMITED, priority 2017, published 2020).
≈ marks a conversion by molar mass, not a printed value.

Legend:
[1] = system: influenza virus A/Puerto Rico/8/34 (H1N1); assay: organism not typed; type: cell-based; conditions: for SI (selectivity index, SI=CC50/IC50): CC50 in MDCK cells / IC50 against influenza A/Puerto Rico/8/34 (H1N1); for IC50: MDCK cells, influenza A/Puerto Rico/8/34 (H1N1), 48 hours, read-out: IC50 (compound concentration, at which 50% of virus titer is inhibited)
[2] = Assessment of cytotoxic properties (MTS assay, 48 h); type: cell-based; conditions: dog, MDCK ECAAC cells, read-out: CC50 (toxic dose of the drug, causing the death of 50% of the monolayer cells)
Protocol: Assessment of cytotoxic properties of asymmetric gossypol derivatives.
In 96-well flat-bottomed test plates, MDCK ECAAC (Sigma cat. ? 85011435) cells are placed at 18,000 cells per well in a volume of 100 μl of complete medium containing 10% fetal calf serum (FCS). Cells are cultured for 24 hours in CO2-incubator at 37° C. Then the liquid medium is removed from the wells of the test plates, leaving the immobilized living cells. Then wells are once washed with the 100 μl of serumless media. The medium is replaced with 100 μl per well of the dilutions of test compounds in support medium with 2% of serum, in 4 replicates. Each plate is prepared with 6 control wells containing 100 μl of fresh support medium without test compounds. The plates are incubated in CO2-incubator at 37° C. for 48 hours. Then liquid contents are removed from the wells, and 100 μl of support medium and 20 μl of MTS (Promega, cat. ? G3581) are added and mixed. The cells are incubated for 3 hours in CO2-incubator at 37° C., and the relative optical density of the solution in each well is measured with a plate spectrophotometer at 492 nm against its absorption at a reference wavelength of 620 nm. The cytotoxicity (CC50) is calculated using the standard method.

SMILES | SI (selectivity index, SI=CC50/IC50) [1] | IC50 [1] [µg/mL] | CC50 at 48 h [2] [µg/mL]
Cc1cc2c(C(C)C)c(O)c(O)c(C=O)c2c(O)c1-c1c(C)cc2c(C(C)C)c(O)c(O)c(C=O)c2c1O [Gossypol, gossypol, reference compound] | 3,24 | 1.2 (≈ 2.31 µM) | 4 (≈ 7.71 µM)
Cc1cc2c(C(C)C)c(O)c(O)cc2c(O)c1-c1c(C)cc2c(C(C)C)c(O)c(O)c(C=O)c2c1O (racemic) [I, 1,1′,6,6′,7,7′-hexahydroxy-5,5′-diisopropyl-3,3′-dimethyl-2,2′-binaphthalene-8-carbaldehyde] | 29,36 | 0.2 (≈ 0.408 µM) | 5.5 (≈ 11.2 µM)
CC1=C(C2=C(C)C(=O)c3c(c(C=O)c(O)c(O)c3C(C)C)C2=O)C(=O)c2cc(O)c(O)c(C(C)C)c2C1=O [II, 6,6′,7,7′-tetrahydroxy-5,5′-diisopropyl-3,3′-dimethyl-1,1′,4,4′-tetraoxo-1,1′,4,4′-tetrahydro-2,2′-binaphthalene-8-carbaldehyde] | 4,75 | 0.8 (≈ 1.54 µM) | 3.8 (≈ 7.33 µM)
